# According to patent publication US20250059220A1, “SUBSTITUTED BENZOTHIOPHENE DERIVATIVES AND METHODS OF USE THEREOF” (Merck Sharp & Dohme LLC, priority 2021, published 2025):
# Legend:
# [1] = target: human PTPN1 (1-435) (Homo sapiens (Human), UniProt P18031); assay: Human PTPN1 Biochemical Assay; settings: DiFMUP substrate, read-out: PTP1B IC50
# How it was run: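 Read-out is DiFMUP hydrolysis fluorescence (360 nm excitation, 460 nm emission) after 1 h at room temperature, following 30 min enzyme–compound preincubation.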
# [2] = target: human PTPN2 (1-387) (Homo sapiens (Human), UniProt P17706); assay: Human PTPN2 Biochemical Assay; settings: DiFMUP substrate
# human PTPN2 (1-387), sequence (P17706 other isoform, or with tags, fused parts or gaps): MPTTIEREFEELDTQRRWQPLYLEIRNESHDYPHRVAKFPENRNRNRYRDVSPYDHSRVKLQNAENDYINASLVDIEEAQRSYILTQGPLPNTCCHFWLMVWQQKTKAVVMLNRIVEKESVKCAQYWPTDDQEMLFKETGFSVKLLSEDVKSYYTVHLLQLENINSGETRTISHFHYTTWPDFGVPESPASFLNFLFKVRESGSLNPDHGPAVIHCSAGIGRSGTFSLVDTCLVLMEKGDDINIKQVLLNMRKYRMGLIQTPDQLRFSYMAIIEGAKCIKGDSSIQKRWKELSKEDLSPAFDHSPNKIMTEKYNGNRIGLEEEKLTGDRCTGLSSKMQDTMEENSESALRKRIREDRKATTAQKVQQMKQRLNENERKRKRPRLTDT
# How it was run: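 Fluorogenic DiFMUP hydrolysis (1 h, room temperature, read ex 360/em 460 nm) after 30 min compound preincubation with PTPN2 residues 1-387, in 50 mM Tris pH 7.4, 150 mM NaCl, 0.01% Tween20, 0.5 mM DTT. Effects scaled between buffer and enzyme controls, 4-parameter fit gives EC50.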
# human PTPN1 (1-435), sequence (P18031 whole entry): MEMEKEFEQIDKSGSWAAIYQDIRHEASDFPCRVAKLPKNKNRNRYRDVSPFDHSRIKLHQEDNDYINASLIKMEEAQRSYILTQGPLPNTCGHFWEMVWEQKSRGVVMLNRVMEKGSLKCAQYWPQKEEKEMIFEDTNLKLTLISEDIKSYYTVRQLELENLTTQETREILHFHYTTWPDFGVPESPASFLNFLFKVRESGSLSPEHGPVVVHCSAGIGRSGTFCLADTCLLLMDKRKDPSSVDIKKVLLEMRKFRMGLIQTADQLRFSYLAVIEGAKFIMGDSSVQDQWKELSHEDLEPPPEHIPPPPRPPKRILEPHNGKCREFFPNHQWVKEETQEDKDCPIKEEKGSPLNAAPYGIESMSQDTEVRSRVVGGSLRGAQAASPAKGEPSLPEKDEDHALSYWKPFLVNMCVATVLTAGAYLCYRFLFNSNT
SMILES,IC50 [1] [nM],IC50 [2] [nM]
O=C(N[C@H]1Cc2ccc(F)cc21)c1ccc2sc(C(F)(F)P(=O)(O)O)c(Br)c2c1 [Compound 15],5620,6160
N#CCCNC(=O)c1ccc2sc(C(F)(F)P(=O)(O)O)c(Br)c2c1 [Compound 12],5250,8890
N#CCCCCNC(=O)c1ccc2sc(C(F)(F)P(=O)(O)O)c(Br)c2c1 [Compound 46],6230,8500
O=C(NC1CC1(F)F)c1ccc2sc(C(F)(F)P(=O)(O)O)c(Br)c2c1 (centres unmarked) [Compound 39],2270,3000
N#Cc1c(C(F)(F)P(=O)(O)O)sc2c(OCC3CC3(F)F)cc(C(N)=O)cc12 (centres unmarked) [Compound 426],13.7,10.2
"O=P(O)(O)C(F)(F)c1sc2c(OCCCC(F)(F)F)cc(-c3cn[nH]c3)cc2c1Br [Compound 404, ((3-bromo-5-(1H-pyrazol-4-yl)-7-(4,4,4-trifluorobutoxy)benzo[b]thiophen-2-yl)difluoromethyl)phosphonic acid]",287,224
O=P(O)(O)C(F)(F)c1sc2c(OCC3CC3(F)F)cc(-c3cnn[nH]3)cc2c1Br (centres unmarked) [Compound 368],3.1,3.53
C[C@@H](NC(=O)c1ccc2sc(C(F)(F)P(=O)(O)O)c(Br)c2c1)c1cccnn1 [Compound 130],1090,1220
CC(NC(=O)c1ccc2sc(C(F)(F)P(=O)(O)O)c(Br)c2c1)c1nncn1C (centres unmarked) [Compound 175],1420,2020
N#Cc1c(C(F)(F)P(=O)(O)O)sc2ccc(C(=O)NCc3c[nH]nn3)cc12 [Compound 173],738,578
"O=P(O)(O)C(F)(F)c1sc2c(OCCCC(F)(F)F)cc(-c3ccn[nH]3)cc2c1Br [Compound 260, ((3-bromo-5-(1H-pyrazol-5-yl)-7-(4,4,4-trifluorobutoxy)benzo[b]thiophen-2-yl)difluoromethyl)phosphonic acid]",11.4,15.7
"O=P(O)(O)C(F)(F)c1sc2ccc(-c3cnn[nH]3)cc2c1Br [Compound 229, ((3-bromo-5-(1H-1,2,3-triazol-5-yl)benzo[b]thiophen-2-yl)difluoromethyl)phosphonic acid]",531,86.2
O=C(NC(CO)c1ccccn1)c1ccc2sc(C(F)(F)P(=O)(O)O)c(Br)c2c1 (centres unmarked) [Compound 192],4590,7980
O=C(NCC1CNC1)c1ccc2sc(C(F)(F)P(=O)(O)O)c(Br)c2c1 [Compound 126],5230,6110
"CNS(=O)(=O)c1cc(OCCCC(F)(F)F)c2sc(C(F)(F)P(=O)(O)O)c(Br)c2c1 [Compound 459, ((3-bromo-5-(N-methylsulfamoyl)-7-(4,4,4-trifluorobutoxy)benzo[b]thiophen-2-yl)difluoromethyl)phosphonic acid]",616,892
"COc1cccc(NCc2ccc3sc(C(F)(F)P(=O)(O)O)c(Br)c3c2)c1 [Compound 220, ((3-bromo-5-(((3-methoxyphenyl)amino)methyl)benzo[b]thiophen-2-yl)difluoromethyl)phosphonic acid]",7140,6060
O=C(NCCc1c[nH]c2ccc(F)cc12)c1ccc2sc(C(F)(F)P(=O)(O)O)c(Br)c2c1 [Compound 94],2400,2800
"N#Cc1ccc2cc(C(F)(F)P(=O)(O)O)sc2c1Br [Compound 297, ((7-bromo-6-cyanobenzo[b]thiophen-2-yl)difluoromethyl)phosphonic acid]",7350,26500
O=C(NCC1CC(F)(F)C1)c1ccc2sc(C(F)(F)P(=O)(O)O)c(Br)c2c1 [Compound 28],5160,6930
Cc1ccc(CNC(=O)c2ccc3sc(C(F)(F)P(=O)(O)O)c(Br)c3c2)nn1 [Compound 137],1090,1420
NS(=O)(=O)CCCOc1cc(-c2cnn[nH]2)cc2c(Br)c(C(F)(F)P(=O)(O)O)sc12 [Compound 365],2.5,2.5
"CC(C)(O)CCOc1ccc2c(Br)c(C(F)(F)P(=O)(O)O)sc2c1 [Compound 302, ((3-bromo-6-(3-hydroxy-3-methylbutoxy)benzo[b]thiophen-2-yl)difluoromethyl)phosphonic acid]",37900,43700

# More lines, now with the values ahead:
IC50 [1] [nM],IC50 [2] [nM],SMILES
518,636,CC(C)(O)CCOc1cc(C(N)=O)cc2c(Br)c(C(F)(F)P(=O)(O)O)sc12 [Compound 170]
15.2,13.5,O=C(NCc1cccnn1)c1cc(OCCCC2CC2)c2sc(C(F)(F)P(=O)(O)O)c(Br)c2c1 [Compound 236]
8.6,12,CNS(=O)(=O)CCCOc1cc(C(N)=O)cc2c(Br)c(C(F)(F)P(=O)(O)O)sc12 [Compound 373]
3890,5370,COc1ncccc1CNC(=O)c1ccc2sc(C(F)(F)P(=O)(O)O)c(Br)c2c1 [Compound 122]
9.2,10.4,CS(=O)(=O)CCCOc1cc(C(=O)NCCC#N)cc2c(Br)c(C(F)(F)P(=O)(O)O)sc12 [Compound 330]
5.4,3.63,CNC(=O)c1cc(OCCCS(N)(=O)=O)c2sc(C(F)(F)P(=O)(O)O)c(C#N)c2c1 [Compound 427]
7.3,6.86,N#CC1(c2ccc(COc3cc(C(N)=O)cc4c(Br)c(C(F)(F)P(=O)(O)O)sc34)cc2)CC1 [Compound 288]
4110,5300,O=C(NC(c1ccccc1F)C(F)(F)F)c1ccc2sc(C(F)(F)P(=O)(O)O)c(Br)c2c1 (centres unmarked) [Compound 13]
18,26.9,"NC(=O)c1cc(OCCC2CCCS2(=O)=O)c2sc(C(F)(F)P(=O)(O)O)c(Br)c2c1 (single isomer, unassigned) [Compound 371]"
11.6,9.79,O=C(NC1CC1(F)F)c1cc(OCCCC(F)(F)F)c2sc(C(F)(F)P(=O)(O)O)c(Br)c2c1 (centres unmarked) [Compound 207]
1880,958,O=C(NC1CCCN(c2ccccc2)C1)c1ccc2sc(C(F)(F)P(=O)(O)O)c(Br)c2c1 (centres unmarked) [Compound 76]
3780,1450,O=C(N[C@@H]1CCCC[C@H]1c1ccccc1)c1ccc2sc(C(F)(F)P(=O)(O)O)c(Br)c2c1 [Compound 86]
1430,1260,CN(C)C(=O)c1cc(OCCCC(F)(F)F)c2sc(C(F)(F)P(=O)(O)O)c(Br)c2c1 [Compound 204]
114,27.3,CC(Cn1ccc2ccccc21)NC(=O)c1ccc2sc(C(F)(F)P(=O)(O)O)c(Br)c2c1 (centres unmarked) [Compound 81]
1790,902,O=C(NCCn1ccc2ccccc21)c1ccc2sc(C(F)(F)P(=O)(O)O)c(Br)c2c1 [Compound 156]
118,16.3,NC(=O)c1cc(OCc2ccc(-n3ccnc3)cc2)c2sc(C(F)(F)P(=O)(O)O)c(Br)c2c1 [Compound 355]
82.1,87.2,"Cc1c(C(F)(F)P(=O)(O)O)sc2c(OCCCS(C)(=O)=O)cc(C(N)=O)cc12 [Compound 429, ((5-carbamoyl-3-methyl-7-(3-(methylsulfonyl)propoxy)benzo[b]thiophen-2-yl)difluoromethyl)phosphonic acid]"
62,99.4,NC(=O)c1cc(OCC2CC(OC(F)(F)F)C2)c2sc(C(F)(F)P(=O)(O)O)c(Br)c2c1 (centres unmarked) [Compound 280]
2030,2690,"O=P(O)(O)C(F)(F)c1sc2c(NCCCC(F)(F)F)cccc2c1Br [Compound 226, ((3-bromo-7-((4,4,4-trifluorobutyl)amino)benzo[b]thiophen-2-yl)difluoromethyl)phosphonic acid]"
83,176,NC(=O)c1cc(OCC2CC(F)(F)C2(F)F)c2sc(C(F)(F)P(=O)(O)O)c(Br)c2c1 (centres unmarked) [Compound 275]
78.6,23.2,NC(=O)c1cc(OCc2ccc(-c3cncnc3)cc2)c2sc(C(F)(F)P(=O)(O)O)c(Br)c2c1 [Compound 398]
132,59.3,NC(=O)c1cc(OCc2ccc(C3(C(F)(F)F)CC3)cc2)c2sc(C(F)(F)P(=O)(O)O)c(Br)c2c1 [Compound 388]
4480,5860,N#CCCCNC(=O)c1ccc2sc(C(F)(F)P(=O)(O)O)c(Br)c2c1 [Compound 34]
6410,5760,"O=C(Nc1ccccc1)c1ccc2sc(C(F)(F)P(=O)(O)O)c(C(F)F)c2c1 [Compound 216, ((3-(difluoromethyl)-5-(phenylcarbamoyl)benzo[b]thiophen-2-yl)difluoromethyl)phosphonic acid]"
2.5,2.7,O=P(O)(O)C(F)(F)c1sc2c(OCCCC(F)(F)F)cc(-c3nnc(C4CC4)[nH]3)cc2c1Br [Compound 418]
2880,2460,CC(NC(=O)c1ccc2sc(C(F)(F)P(=O)(O)O)c(Br)c2c1)c1cccc(OC(F)(F)F)c1 (centres unmarked) [Compound 102]
7.5,6.95,O=C(Nc1ccccc1)c1cc(OCCCC(F)(F)F)c2sc(C(F)(F)P(=O)(O)O)c(Br)c2c1 [Compound 205]
16,17.4,CC(C)(C#N)CCCOc1cc(C(N)=O)cc2c(Br)c(C(F)(F)P(=O)(O)O)sc12 [Compound 278]
< 2.5,< 2.5,CS(=O)(=O)c1ccc(COc2cc(-c3nc[nH]n3)cc3c(Br)c(C(F)(F)P(=O)(O)O)sc23)cc1 [Compound 444]
11,9.74,NC(=O)c1cc(OCC23COC(CF)(C2)C3)c2sc(C(F)(F)P(=O)(O)O)c(Br)c2c1 [Compound 290]
